The assay has as its system CEM cells HIV-1 protection, formazan growth assay. Briefly: NCI AIDS Antiviral Assay. The note with it: for IC50: measured here: growth of uninfected CEM cells. In outline:
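Protection of CEM cells against HIV-1 was scored from cell growth (soluble formazan) across five concentrations, with parallel uninfected cells. Lack of protection may reflect toxicity.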

Several values for one entry are separate records, joined by “and”; a condition that tells them apart may be missing. Equal entries are not always repeated. Activity calls are given as the source filed them.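 Rule for the calls: active = compounds giving half or more protection of infected cells from virus-caused growth loss, again on retest; inactive = the rest.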 Where a SMILES comes first, the peptide text is derived from it. Some results are limits rather than exact numbers.

Take `O=C1CC(C2(O)C(=O)Nc3ccc([N+](=O)[O-])cc32)c2ccccc21` (configuration not stated): the EC50 – broadly, the concentration that produces a half-maximal response – was above 55 µM and the IC50 – broadly, the point on the concentration scale where inhibition reaches its midpoint – is above 55 µM.

With `Cc1cc2c(cc1Cl)SC(C(=O)c1cccc([N+](=O)[O-])c1)=NS2(=O)=O`, the EC50 is 120 µM and the IC50 was above 200 µM.

Regarding `CC(=O)Nc1ccc(/C=C(\C#N)c2ccc(C)cc2)cc1`, the EC50 was above 200 µM and the IC50 was above 200 µM.

With `O=c1[nH]c(=O)n(C2COC(CO)C2O)cc1F` (configuration not stated), the EC50 is above 200 µM and the IC50 came out at 6.03 µM.

Take `CCc1c(O)cc(=O)oc1-c1ccc(OC)c(OC)c1`: the EC50 is above 200 µM and the half-inhibitory concentration (IC50) was above 200 µM.

For the compound `Nc1snc2ncccc12`, the EC50 was above 1200 µM and the IC50 was 66.1 µM.

Regarding `CN=C(NC#N)N(Cc1ccccc1)Cc1ccccc1`, the EC50 is above 129 µM and the IC50 was above 100 µM.

Regarding `O=S1(=O)CC(N2CCOCC2)C2=C(O1)c1sc(-c3ccccc3)nc1CC2` (configuration not stated), the outcome was inactive.

Turning to `N#CC1(c2nc3ccccc3o2)C(=O)C(=O)N(c2ccc(Cl)c(Cl)c2)C(=O)C1=O`, the EC50 was above 302 µM and the 50% inhibitory concentration (IC50) is 282 µM.

With `O=C1C=C2CC3c4[nH]c5ccccc5c4CCN3CC2CC1` (configuration not stated), the EC50 is above 85.1 µM and the IC50 stood at 43.7 µM.

As for `CCOC(=O)C(=O)Nc1ccc(C)c(C)c1`, the EC50 was above 427 µM and the IC50 is above 427 µM.

For the compound `Cn1c(=O)c2[nH]c(Nc3cccc(Cl)c3)nc2n(C)c1=O`, the EC50 was above 200 µM and the concentration for half-maximal inhibition (IC50) worked out at 10.7 µM.

Consider `C#CCN(N=O)C(=O)NC(CCCNC(=O)OCc1ccccc1)C(=O)OCc1ccccc1` (configuration not stated), for which the EC50 is above 28.8 µM and the half-maximal inhibitory concentration (IC50) was above 28.8 µM.

With `COC(=O)Nc1nc2ccc(C(=O)C3CC3)cc2[nH]1`, the EC50 is above 200 µM and the half-inhibitory concentration (IC50) turned out to be 0.219 µM.

On to `CC1C(O)=C(O)c2ccccc2N1O` (configuration not stated), for which the EC50 is above 490 µM and the IC50 stood at 87.1 µM.

On to `CCOC(=O)C1=C(O)C(=O)NC(C(=O)OCC)=C(c2ccccc2)C1`, for which the EC50 was above 50.1 µM and the concentration for half-maximal inhibition (IC50) was above 50.1 µM.

Regarding `CC1=CC(C)(C)NC(=S)N1c1ccccc1O`, the outcome was inactive.

Take `O=c1[nH]c(=O)n(C2CC(O)C(CO)O2)cc1C#Cc1c(F)c(F)c(F)c(F)c1F` (configuration not stated): the EC50 is above 603 µM and the IC50 was 110 µM.

As to `FC(F)(F)c1nc2cc(SSc3cc4nc(C(F)(F)F)[nH]c4cc3Cl)c(Cl)cc2[nH]1`, the EC50 is above 200 µM and the 50% inhibitory concentration (IC50) worked out at 7.41 µM.

As for `CC1CCC2(CC1)CC(=O)N(N1CCCCC1)C2=O` (configuration not stated), the EC50 is above 200 µM and the half-inhibitory concentration (IC50) is above 200 µM.

On to `CCN(CC)C1CS(=O)(=O)OC(c2ccccc2)=C1C` (configuration not stated), for which the EC50 was above 316 µM and the IC50 was 22.4 µM.

For `N#C/C(=C\c1ccc2ccccc2c1)C(=O)c1ccccc1`, the EC50 is above 7.08 µM and the concentration for half-maximal inhibition (IC50) was above 7.08 µM.

As to `C=CCc1ccccc1OP(=O)(Oc1ccc(C(C)(C)C)cc1)Oc1ccc(C(C)(C)C)cc1`, the result was inactive.

`CC1N(C)C(=O)OC12CCN(CCCC(=O)c1ccc(F)cc1)CC2` (configuration not stated): the EC50 is above 200 µM and the IC50 was above 200 µM.

For the compound `CNC(=S)/C(=N\Nc1nc[nH]c1C(N)=O)C(N)=S`, the EC50 was above 2 µM and the concentration for half-maximal inhibition (IC50) was 0.955 µM.

On to `CC[C@H]1CN2CCc3c([nH]c4ccccc34)C2C[C@@H]1CCO` (some centres not stated), for which the EC50 was above 120 µM and the IC50 was above 120 µM.

Turning to `CC(C)=CCNc1ncnc2c1ncn2CCC(=O)O`, the EC50 is above 200 µM and the IC50 is above 200 µM.

`Nc1nc(Cl)c(N=Nc2ccc(Cl)cc2)c(NCC2(CO)CC(OCc3ccccc3)C2)n1` (configuration not stated): the EC50 was above 20 µM and the 50% inhibitory concentration (IC50) amounted to 14.5 µM.

Regarding `CC1C2Cc3ccc(O)cc3C1(C)CCN2CC1CC1` (configuration not stated), the EC50 was above 200 µM and the IC50 is above 200 µM.

On to `CC(=O)NC(CCCCNCc1ccccc1)C(=O)NCc1ccccc1` (configuration not stated), for which the EC50 is above 676 µM and the IC50 was above 676 µM.

For `Clc1ccccc1C(SCc1ccccc1)SCc1ccccc1`, the EC50 is above 200 µM and the half-maximal inhibitory concentration (IC50) amounted to 195 µM.

For the compound `CC(C)(C)[Si](C)(C)OCC1OC(n2ccc(=O)[nH]c2=O)C(O[Si](C)(C)C(C)(C)C)C1C/C(N)=N/O` (configuration not stated), the EC50 was above 200 µM; the half-maximal inhibitory concentration (IC50) was 6.61 µM and 30.9 µM.

Consider `Cc1c(C(=O)CC(=O)C(=O)Nc2c(C(C)C)cccc2C(C)C)[n+](=O)c2ccccc2n1[O-]`, for which the EC50 was above 6.03 µM and the half-inhibitory concentration (IC50) is above 6.03 µM.

In the case of `CCN(CC)C(=O)C/C(C)=N/NC(=O)c1ccncc1`, the EC50 was above 93.3 µM and the IC50 is above 93.3 µM.

For `CS(=O)(=O)Nc1ccc2c(c1)N(S(C)(=O)=O)CC2CCl` (configuration not stated), the EC50 is above 200 µM and the half-maximal inhibitory concentration (IC50) amounted to 166 µM.

Turning to `CCCCC(O)(c1ccccc1)C(O)(c1ccccc1)c1c(F)c(F)c(F)c(F)c1F` (configuration not stated), the EC50 is above 200 µM and the IC50 came out at 39.8 µM.

As for `C[C@@H]1CC(=O)C2CCCC1C2=O` (some centres not stated), the result was inactive.

On to `Cn1c(=O)c2c(nc(N/N=c3\scc(-c4ccc(Cl)cc4)n3Cc3ccccc3)n2C)n(C)c1=O`, for which the EC50 was above 200 µM and the IC50 was determined as 10.7 µM.

Take `COC(=O)c1cc(CC2Cc3cc4c(cc3C2)CCC4)cc2c1CCC2`: the EC50 is above 200 µM and the IC50 is above 200 µM.

Regarding `COC(=O)[C@@H]1CN(C(=O)c2ccccc2)C(=O)N1C(=O)OCc1ccccc1`, the EC50 is above 200 µM and the IC50 was above 200 µM.

Take `COc1c(C)c2nc3ccccc3[nH]c2c2c(=O)ccnc12`: the EC50 was above 100 µM and the 50% inhibitory concentration (IC50) is above 100 µM.

On to `CC(=O)Nc1nc2c(=O)c3ccccc3sc2s1`, for which the outcome was inactive.

For the compound `CC(=O)O[C@H]1CC[C@@]2(C)[C@H](CC[C@@H]3[C@@H]2CC[C@]2(C)[C@@H]4[C@H](C[C@@H]32)O[C@]2(CC[C@@H](C)CO2)[C@H]4C)C1`, the EC50 is above 200 µM and the IC50 is above 200 µM.

Take `Cn1c2ccccc2n2c3ncccc3c(=NCCCC(=O)O)c(C#N)c12`: the EC50 is above 200 µM and the 50% inhibitory concentration (IC50) was above 200 µM.

As to `CC1C2(C)OC(=N)C(C#N)(C(c3cccc([N+](=O)[O-])c3)O2)C1(C#N)C#N` (configuration not stated), the EC50 was above 200 µM and the IC50 was found to be 11.7 µM.

Consider `COc1cc2cccc(N=Cc3ccccc3Cl)c2cc1OC`, for which the EC50 is above 30.9 µM and the half-inhibitory concentration (IC50) was above 30.9 µM.

Turning to `CCOC(CCCN1CCC2(CC1)C(=O)N(C)CN2c1ccccc1)(OCC)c1ccc(F)cc1`, the EC50 is above 200 µM and the concentration for half-maximal inhibition (IC50) was found to be 15.1 µM.

Consider `CCOC(=O)CNC(=O)C(Cc1ccccc1)NC(=O)C(N)CC(=O)O` (stereo not drawn) (H-Asp-Phe-Gly-OEt; configuration not given here), for which the EC50 is above 200 µM and the IC50 is above 200 µM.

Take `C=CNC(=S)N/C=C(\C#N)S(=O)(=O)c1ccc(C)cc1`: the EC50 is above 200 µM and the IC50 is above 200 µM.

Turning to `O=C(NCP(=O)(Oc1ccccc1)Oc1ccccc1)OCc1ccccc1`, the EC50 was above 200 µM and the IC50 amounted to 162 µM.

For the compound `Cc1cc(S(=O)(=O)Nc2nc(N)nc(N(C)C)n2)c(S)cc1Cl`, the EC50 is above 182 µM and the IC50 stood at 166 µM.

For the compound `Cc1ccc2c(=O)c3ccccc3sc2c1`, the EC50 was above 200 µM and the IC50 was above 200 µM.

For the compound `Cc1cc2c(c(C(=O)O)c1C)-c1cccc(F)c1C2=O`, the result was inactive.

On to `O=C1C=C2CCC[C@H]3OC(=O)C[C@@]23CC1`, for which the outcome was inactive.

For `CC(=O)c1sc2[n+](c1C)C(=O)/C(=C\c1ccccc1Cl)S2`, the EC50 was 31.6 µM and the concentration for half-maximal inhibition (IC50) stood at 110 µM.

As to `CN(C)C(=S)/N=c1\ss/c(=N/C(=S)N(C)C)n1-c1ccc([N+](=O)[O-])cc1`, the EC50 was above 200 µM and the IC50 was determined as 151 µM.

Consider `Cc1nnc(NS(=O)(=O)c2ccc(NC(=O)c3ccccc3SC(=O)CCCC[n+]3ccccc3)cc2)s1`, for which the 50% effective concentration (EC50) was 51.3 µM and the IC50 stood at 55 µM.

Consider `CN(c1ccc(/C=C/c2ccccc2)cc1)P1(=O)NCCCO1` (configuration not stated), for which the EC50 is above 41.7 µM and the IC50 was 28.2 µM.

For the compound `NCCN.NCCN.O=C[O-].O=C[O-].[Co+3].[O-][Cl+3]([O-])([O-])[O-]`, the outcome was inactive.

Turning to `N#CCCN(CCN(CCC#N)C(=O)Nc1ccccc1)C(=O)Nc1ccccc1`, the EC50 was above 200 µM and the IC50 is above 200 µM.

On to `Nc1ccc(C(=O)N/C(=C\c2ccc3c(c2)OCO3)c2nc3ccc4c(c3[nH]2)C(=O)c2ccccc2C4=O)cc1`, for which the outcome was inactive.

Turning to `N#CCCC(CCC#N)(CCC#N)NO`, the EC50 was above 200 µM and the concentration for half-maximal inhibition (IC50) was above 200 µM.

Take `C[N+](C)(C)CC1CCCC/C1=N\OC(=O)c1ccccc1` (configuration not stated): the EC50 was above 603 µM and the IC50 stood at 575 µM.

The compound `O=[N+]([O-])c1cccc[c]1[Sb](=[O])([OH])[OH]` had an EC50 above 200 µM and a concentration for half-maximal inhibition (IC50) of 7.41 µM.

In the case of `O=C1C2C3C=CC(C3)C2S(=O)(=O)C2C3C=CC(C3)C12` (configuration not stated), the EC50 is above 324 µM and the IC50 is above 324 µM.

In the case of `O=C1/C(=C\Oc2ccc(F)cc2)N2CCC1CC2`, the EC50 is above 200 µM and the concentration for half-maximal inhibition (IC50) is 102 µM.

Turning to `CC(C)=CCC/C(C)=C\CCC1(C)OC(=O)C2CC21` (configuration not stated), the EC50 is above 200 µM; the half-inhibitory concentration (IC50) is 81.3 µM and 36.3 µM.

As to `CCCCCCCCCCC#CCC(=O)SCCNC(=O)CCNC(=O)[C@@H](O)C(C)(C)COP(=O)(O)OP(=O)(O)OCC1OC(n2cnc3c(N)ncnc32)C(O)C1OP(=O)(O)O` (some centres not stated), the outcome was inactive.

As for `C#CC1(O)CCC2[C@@H]3CCc4cc(Oc5nc(F)nc(-c6c(C)c(C(=O)OCC)n7ccccc67)n5)ccc4C3CC[C@@]21C` (some centres not stated), the EC50 is above 100 µM and the 50% inhibitory concentration (IC50) is above 100 µM.

With `Cc1cc(-c2ccc(N=Nc3c(S(=O)(=O)O)cc4cccc(S(=O)(=O)O)c4c3O)c(C)c2)ccc1N=Nc1ccc2c(S(=O)(=O)O)ccc(N)c2c1O`, the result was inactive.

On to `CCOC(=O)Cc1csc(NC(NC(=O)OCC)(C(=O)OCC)C(F)(F)F)n1` (configuration not stated), for which the EC50 is above 200 µM and the IC50 was above 200 µM.

As for `N=c1oc2ccccc2cc1-c1nc2ccccc2c(=O)[nH]1`, the outcome was inactive.

The record behind these values is PubChem BioAssay AID179 (DTP/NCI, 2004).
